Measured values published in PubChem BioAssay AID179 (DTP/NCI, 2004).
Active and inactive are the calls of the source.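 The calls were made as follows: active = compounds giving half or more protection of infected cells from virus-caused growth loss, again on retest; inactive = the rest.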 Where a SMILES comes first, the peptide text is derived from it.

Tested on: CEM cells HIV-1 protection, formazan growth assay
Assay: NCI AIDS Antiviral Assay
Conditions: for IC50: measured here: growth of uninfected CEM cells
Outline: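 Protection of CEM cells against HIV-1 was scored from cell growth (soluble formazan) across five concentrations, with parallel uninfected cells. Lack of protection may reflect toxicity.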

SMILES | EC50 [µM] | IC50 [µM] | outcome
CC(=O)N1N=C(c2c(O)ccc3ccccc23)CC1c1ccc(Cl)cc1 (stereo unspecified) | > 200 | 25.1 | 
CCCCCCOC(=O)Nc1nnc(SSC2=NN=CC2NC(=O)OCCCCCC)s1 (stereo unspecified) | > 200 | 19.5 | 
CCC(C)C(NC(=O)C(N)CCC(=O)O)C(=O)NC(CCCCN)C(=O)NCC(=O)NC(C(=O)NC(C(=O)NC(CC(=O)O)C(=O)NC(CC(C)C)C(=O)NCC(=O)NC(CCCCN)C(=O)O)C(C)O)C(C)O (stereo unspecified) (H-EIKGTTDLGK-OH; configuration not given here) |  |  | inactive
C[C@]12CC[C@H]3[C@@H](CCC4=CC(=O)[C@H](Br)C[C@@]43C)[C@@H]1CC[C@@H]2C(=O)CBr | > 2 | 0.316 | 
COc1cnc([C@H]2CCC3[C@@H]4CC=C5C[C@@H](O)CC[C@]5(C)C4CC[C@@]32C)s1 (stereo partly specified) | > 4.9 | > 4.9 | 
COc1nn(Cc2ccccc2F)c2ccc([N+](=O)[O-])cc12 | > 200 | 50.1 | 
CC1(C)COC(c2cccc(C3=NC(C)(C)CO3)n2)=N1 | > 26.3 | > 26.3 | 
O=C1c2ccccc2S(=O)(=O)c2ccccc21 | 129 | 501 | 
N#CC(NNC(=O)c1ccccc1O)c1c(O)ccc2ccccc12 (stereo unspecified) | > 40.7 | 3.8 | 
CCOC(=O)CSc1nnc(CSc2nc(-c3ccccc3)c(-c3ccccc3)[nH]2)n1-c1ccccc1 | > 13.5 | > 13.5 | 
COc1ccc(/C=C2\NC(=S)N(/C=C3\C(=O)Oc4ccccc4C3=O)C2=O)cc1 | > 200 | 148 | 
CC1(C)C2CCC(=O)C1CC2 (stereo unspecified) | > 200 | > 200 | 
C=CCn1c(-c2ccc([N+](=O)[O-])cc2)csc1=N | > 200 | 26.3 | 
Cn1c2ccccc2c(=NNc2ccc(C(=O)O)cc2)c2ccccc21 | > 200 | 13.8 | 
COc1ccc(CC2C(=O)NC(C)C(=O)N(C)C3C(=O)N(C)C(Cc4ccc(O)c(c4)Oc4ccc(cc4)C3O)C(=O)NC(C)C(=O)NC(C)C(=O)N2C)cc1 (stereo unspecified) | > 0.2 | 0.0631 | 
O=Cc1cc2c(cc1-c1c(C=O)ccc3c1OCO3)OCO2 | > 63.1 | 33.1 | 
CC(C)[C@@H](C)/C=C/[C@@H](C)C1CC2C3=CC=C4C[C@@H](OC5OCC(O)C6OC(=O)C(=O)OC56)CC[C@]4(C)C3CC[C@]2(C)C1 (stereo partly specified) | > 200 | 11 | 
COC(=O)CNC(=O)c1cc(C)cc2c1Oc1c(cc(C)cc1C(=O)NCC(=O)OC)S2 | > 200 | > 200 | 
Cc1cc2c(c(=O)n1C)SCC2 | > 200 | > 200 | 
O=C(/C=C/c1ccccc1O)c1ccccc1O | > 209 | > 209 | 
Cc1nc(-n2nc(-c3ccccc3)cc2-c2ccccc2)sc1C(=O)CC(=O)C(=O)Nc1ccc(O)cc1 | > 347 | > 347 | 
O=C1C=CC(=O)N1Nc1ccc([N+](=O)[O-])cc1[N+](=O)[O-] | > 200 | 110 | 

SMILES | EC50 [µM] | IC50 [µM] | outcome
CN=C(Nn1cnnc1)OC | > 200 | > 200 | 
COc1cccc(N2CCc3c(C)c(C#N)c4nc5ccccc5n4c32)c1 | > 100 | > 100 | 
C=C1CC23CC4C5C6(C)CC(O)CC57C(C2C(O)C1C(O)C37)N4C6 (stereo unspecified) |  |  | inactive
Cc1ccc(NCC(=O)N2CC(=O)Nc3ccccc32)cc1 | > 123 | > 123 | 
C=C(C)C1CC=C(C)C(O)([C@@]2(O)C[C@H](C(=C)C)CC=C2C)C1 (stereo partly specified) |  |  | inactive
COc1ccc(C(C)(C)c2cc3c(cc2OC)OCO3)cc1 | > 45.7 | 0.0316 | 
Cc1ccc(Nc2nc(NS(=O)(=O)c3cc(C(=O)Nc4ccc(Cl)cc4)c(Cl)cc3S)n[nH]2)cc1 | > 195 | 178 | 
O=c1c2ccccc2c(=O)n2n1CC=CC2 |  |  | inactive
N#Cc1c(N)c(C(=O)O)nn(-c2cccc(C(F)(F)F)c2)c1=O |  |  | inactive
Oc1c(C(O)N2CCOCC2)cc(C(O)N2CCOCC2)c(O)c1O (stereo unspecified) (tested in a mixture with another compound) | > 200 | 1.91 | 
CN1C(=O)n2c(nc3ccccc32)C(N=[N+]=[N-])(N=[N+]=[N-])C1=O (stereo unspecified) | 70.8 | > 100 | 
CC(C)(C)C1=CC(C)(n2[nH]c(=O)n(-c3ccccc3)c2=O)C=C(C(C)(C)C)C1=O | > 200 | 97.7 | 
COC(=O)c1c(C#C[Si](C)(C)C)c(C#C[Si](C)(C)C)c(C#C[Si](C)(C)C)c(C#C[Si](C)(C)C)c1C(=O)OC | > 50.1 | > 50.1 | 
O=C(NN1CCOC1=O)OCCCl | > 200 | > 200 | 
Cc1cc(N(C)c2ccccc2)nc(N(C)c2ccccc2)n1 | > 200 | 60.3 | 
CN(CCSCC(N)C(=O)O)CCSCC(N)C(=O)O (stereo unspecified) | > 87.1 | > 87.1 | 
[O-][n+]1onc2c1-c1nonc1CC2 | > 200 | 26.9 | 
Cc1nc(C(N)=S)sc1C(=O)CC(=O)C(=O)Nc1nc2ccccc2[nH]1 | > 93.3 | > 93.3 | 
O=C(O)C1=CN(c2ccncc2)C(c2ccco2)=CC1c1ccccc1[N+](=O)[O-] (stereo unspecified) | > 200 | 4.79 | 
CN1C(=O)[C@@H]2[C@@H]3c4ccccc4N[C@@H]3c3[nH]c4ccccc4c3[C@@H]2C1=O | > 200 | 81.3 | 
O=c1[nH]ncc2c1ncn2C1CCC(CO)O1 (stereo unspecified) | 195 | > 200 | 
Cc1c(-c2ccccc2)oc2c(C(=O)OCCN3CCCCC3)cccc2c1=O |  |  | inactive

SMILES | EC50 [µM] | IC50 [µM] | outcome
Cn1c2c(c3ccccc31)C1C(=O)N(c3ccccc3)C(=O)C1CC2 (stereo unspecified) | > 57.5 | > 57.5 | 
S=C(Nc1ccc2c(c1)oc1ccccc12)c1cccnc1 | 67.6 | > 200 | 
O=c1c2ccccc2oc2cc(Br)ccc12 | > 26.3 | > 26.3 | 
COc1ccc(-c2c3c(n(C4OC(CO)C(O)C(O)C4O)c(=S)c2C#N)CC(C)(C)CC3=O)cc1 (stereo unspecified) | > 200 | 105 | 
C=Cc1ccccn1 | > 200 | > 200 | 
CC(C)C1=CC2=CC=C3C(C)(C)CC(=O)OC3(C)CC2=C(O)C1=O (stereo unspecified) |  |  | inactive
Cc1c2n(c(=O)[nH]c1=O)C1OC(CO)C(N=[N+]=[N-])C1O2 (stereo unspecified) | > 200 | > 200 | 
CCCNC(=O)Cn1c(-c2ccccc2)cc2ccccc21 | > 200 | > 200 | 
CC1(C)C2CCC1(C)[C@H](O)[C@H]2Nc1cc(C(F)(F)F)cc(C(F)(F)F)c1 (stereo partly specified) | > 20 | 0.513 | 
O=C1C=C(Nc2ccc(S(=O)(=O)Nc3nccs3)cc2)c2ccccc2C1=O | > 316 | 38.9 | 
O=c1[nH]c(=O)n(C2CC(O)C(CO)O2)cc1OCc1ccccc1 (stereo unspecified) | > 200 | > 200 | 
Cc1cccc(Nc2cn(CCOc3ccccc3)c(=O)[nH]c2=O)c1 | > 200 | 27.5 | 
COc1cc2c(c(O)c1OC)C(=O)C1CCC(=O)N1C2c1cccc2ccccc12 (stereo unspecified) | > 200 | 31.6 | 
ClC1c2ccccc2-c2nsnc2C1Cl (stereo unspecified) | > 28.2 | > 28.2 | 
CCN(CC)CCn1c(C)nc2c1C(=O)c1nc(C)n(CCN(CC)CC)c1C2=O | > 200 | 5.75 | 
CC(=O)Nc1ccc(C(=O)CCC(NC(C)=O)C(=O)O)cc1 (stereo unspecified) | > 200 | > 200 | 
CCCCC1C=Cn2c(=O)oc3c(OC(C)C)c(OC(C)C)c(O)c1c32 (stereo unspecified) | > 200 | 13.2 | 
COc1ccc2c(ccc(=O)n2C)c1 | > 200 | > 200 | 
CN1C(=O)C(Br)SC1=S (stereo unspecified) | > 31.6 | > 31.6 | 
CCOC(=O)c1cn(CC)c2ccc3c(c2c1=O)S(=O)(=O)C=C3 | > 200 | 29.5 | 
O=C(O)C(C(=O)O)P(=S)(S)c1ccccc1 (stereo unspecified) | > 4570 | > 4570 | 
O=C1CCc2ccccc2O1 | > 1700 | 1410 | 

SMILES | EC50 [µM] | IC50 [µM] | outcome
C=C(C)C1CC2=C(O1)C(=O)c1cccc(O)c1C2=O (stereo unspecified) | > 2 | 0.468 | 
CC(C)(C)OC(=O)[N+](=N)C(=O)C1CCC(=O)N1C(=O)OCc1ccccc1 (stereo unspecified) | > 200 | > 200 | 
c1nncn1C12C3C4C5C3C1C5C42 (stereo unspecified) | > 200 | > 200 | 
CONC(CC(=O)c1ccccc1)c1ccccc1 (stereo unspecified) | > 4.07 | > 4.07 | 
Cc1cc2c(C)nn(Cc3ccc(Cl)cc3Cl)c2c(C#N)c1C | > 20.9 | > 20.9 | 
CO/C(=N\N=C\c1cccc(Cl)c1)c1ccncc1 | > 132 | 83.2 | 
O=C(CSc1nc(-c2ccccc2)c(-c2ccccc2)[nH]1)N/N=C/c1ccc(O)cc1 | > 43.7 | 9.77 | 
O=C(Nc1ccc(Cl)c(Cl)c1)OCCN1c2ccccc2Sc2ccccc21 | > 200 | 38 | 
CCOC(=O)/C(=C\c1ccco1)C(C)=O | > 240 | > 240 | 
CCOC(=O)c1cc(C2CCN(CC(C)CC)C2=S)c(-c2cc(C)no2)[nH]1 (stereo unspecified) | > 200 | > 200 | 
CC(C)(C)OC(=O)CN1CCNCCNCC1 | > 100 | > 100 | 
O=c1[nH]c(=O)n(COCCO)c2ccc(Br)cc12 | > 200 | > 200 | 
COC1CC(C)(NC(=O)C(F)(F)F)C2OC(c3ccccc3)OCC2O1 (stereo unspecified) | > 200 | > 200 | 
O=C(Nc1ccc(C2=NCCN2)cc1)Nc1cc(NC(=O)Nc2ccc(C3=NCCN3)cc2)cc(C(=O)O)c1 | 38.9 | > 200 | 
CCCCNC=C1C(=O)Nc2ccccc2NC1=O | > 200 | > 200 | 
O=C(O)c1ccc(CS(=O)c2ccccc2)c([N+](=O)[O-])c1 (stereo unspecified) |  |  | inactive
CC1=NNC(=O)C1C1CC(c2c[nH]c3ccccc23)=NN(C(N)=O)C1=O (stereo unspecified) | > 200 | > 100 | 
CC12CCC(C(=O)OC1=O)C(C)(C)O2 (stereo unspecified) | > 200 | > 200 | 
COc1cc(N=Nc2c(O)c3ccccc3[nH]c2=O)c(OC)cc1N=Nc1ccccc1 | > 100 | > 100 | 
CCOC(=O)c1c(N2CCOCC2)[nH]c(=O)c(C(c2ccco2)c2c(O)c(C(=O)OCC)c(N3CCOCC3)[nH]c2=O)c1O | > 200 | > 200 | 
Cc1ccc(/C=C2\NC(=S)NC2=O)cc1 | > 200 | > 200 | 
